In patent EP2012764B1, “PHARMACEUTICAL COMBINATION COMPRISING 3-(3-DIMETHYLAMINO-1-ETHYL-2-METHYL-PROPYL) -PHENOL AND PARACETAMOL” (Grünenthal GmbH, priority 2006, dated 2007):

Test system: inflammatory pain
Assay: Randall-Selitto test in rats (carrageenin-induced paw oedema, pressure at vocalisation, %MPE; isobolographic analysis)
Assay type: in vivo, rat
Description: The weight ratios of the components (a) and (b) that will lead to a supra-additive effect (synergistic effect) of the inventive pharmaceutical composition may be determined via the test of Randall and Selitto as described in Arch. Int. Pharmacodyn., 1957, 111: 409 to 419, which is a model for inflammatory pain. The respective part of the literature is hereby incorporated by reference and forms part of the present disclosure.
By means of injection of 0.1 ml of Carrageenin-suspension ventrally into a hind paw of a rat an oedema is induced, on which pain is generated 4 hours later by continuously increasing pressure with a stamp (2 mm tip diameter). The antinociceptive and antihyperalgesic activity of the tested substance is determined at different points in time after administration of the substance. The measured value to be determined and at the same time also the end point of the pain test is the pressure at which the vocalisation reaction of the rat occurs. The percentage maximum possible effect (%MPE) is calculated. The maximum pressure of the stamp is 250 g. The group size is n = 10.
The interactions studies presented herein were performed using equieffective doses of the two components, calculated from the ratio of the respective ED50 values of the components if administered alone.
The application route was intravenous (i.v.) for (1R,2R)-3-(3-Dimethylamino-1-ethyl-2-methyl-propyl)-phenol (A) and intraperitoneal (i.p.) for Paracetamol. […] According to their respective timepoint of peak effect, (1R,2R)-3-(3-Dimethylamino-1-ethyl-2-methyl-propyl)-phenol was applied 15 min and Paracetamol 120 min before timepoint of measurement of the interaction-experiments (i. e. Paracetamol was applied 105 min before (1R,2R)-3-(3-Dimethylamino-1-ethyl-2-methyl-propyl)-phenol, respectively). Thus, the time point of ED50 calculation of the combination corresponds to the timepoint of the peak effect of the respective compound.

For CC[C@@H](c1cccc(O)c1)[C@@H](C)CN(C)C [A, (1R,2R)-3-(3-Dimethylamino-1-ethyl-2-methyl-propyl)-phenol], the “timepoint of peak effect” value (A alone, i.v., timepoint of first measurement) was 15 min p. appl.
CC(=O)Nc1ccc(O)cc1 [Paracetamol] was tested, and the “timepoint of peak effect” value (Paracetamol alone, i.p.) was 120 min p. appl, the “ED50 (confidence interval)” value (Paracetamol alone, i.p., 120 min p. appl. (peak effect), rat, n = 10, 120 min) was 189,9 (181,3-198,4) mg/kg and the ED50 (Rattus norvegicus, ip, 2 h, Paracetamol alone, i.p., 120 min p. appl. (peak effect), rat, n = 10, read-out: ED50 (confidence interval)) was 190 mg/kg.
